The source of these data is US6747061B2, “N-substituted dithiocarbamates for the treatment of biological disorders” (AtheroGenics, Inc., priority 2000, dated 2004).

Test [1] relates to VCAM-1. As to the kind of experiment: VCAM-1 assay: enzyme immunoassay of TNF-α induced VCAM-1 expression in endothelial cells. Type of test: cell-based, Human. How it is done: The VCAM-1 assay is an enzyme immunoassay to detect tumor necrosis factor alpha (TNF-α) induced Vascular Adhesion Molecule (VCAM-1) expression in endothelial cells.
Human endothelial cells (HAEC) were purchased from Clonetics and maintained in EGM media (Clonetics) supplemented with 5% fetal bovine serum (FBS). In a typical experiment, cells were seeded in 96-well plates. The next day cells were stimulated with TNF-α (1 ng/ml) purchased from Boehringer Mannheim in the presence or absence of compounds dissolved in dimethylsulphoxide (DMSO). To establish a dose curve for each compound, four concentrations in 2 fold increments were used. Cells were exposed to TNF-α and compounds for approximately 16 hours. The next day, cells were examined under microscope to score for visual signs of toxicity.
Media was discarded and the cells were washed once with Hanks buffered saline solution (HBSS)/phosphate buffered solution (PBS) 91:1). Primary mouse monoclonal antibody against VCAM-1 purchased from Southern Biotechnology Associates (0.25 μg/ml in HBSS/PBS+5% FBS) was added and incubated at 37° C. for 30 minutes. Cells were washed with HBSS/PBS three times, and secondary antibody horse radish peroxidase (HRP)-conjugated goat anti-mouse IgG purchased from Southern Biotechnology Associates (1:500 in HBSS/PBS+5% FBS) was added and incubated at 37° C. for 30 minutes. Cells were washed with HBSS/PBS four times and peroxidase substrate 3.3′,5,5′-tetramethyl-benzidine (TMB) was added and incubated in the dark at room temperature until there was adequate blue color development. The length of incubation time was typically 5-15 minutes. 2 N sulfuric acid was added to stop the color development and the data was collected by reading the absorbance at O.D. 450 nm. The result was expressed as the percentage of control sample (cells stimulated by TNF without any compound).

The test system of test [2] is SNU-C5 colorectal carcinoma cells. As to the kind of experiment: Anti-proliferative effect on SNU-C5 cells (CellTiter96). The settings on record: 5-FU alone 1 μM, read-out: proliferation, percent of control. Type of test: cell-based. How it is done:
(§1) All primary cells and cell lines were commercially available. The transformed cell lines were grown in Dulbecco's Modified Eagle Media supplemented with 2 mM L-glutamine, 50 I.U. penicillin, 50 μg/ml streptomycin, nonessential amino acids and 10% heat-inactivated fetal bovine serum. HASM, HAEC and NHBE cells were cultured exactly as described by the commercial provider (Clonetics, San Diego, Calif.). All cell lines were grown at 37° C. in 5% CO2, with the media being changed every 48 hours.
(§2) For the experimental assays, cells were plated in 96-well plates and grown until ˜35% confluency was achieved. For the transformed cell lines, cells were plated at low density and grown for 72 hours prior to being stimulated, whereas the non-transformed cells were plated at a higher density and grown for 24 hours prior to being stimulated.
(§3) Cells were treated with dithiocarbamate (0.1-100 μM)±5FU (0.01-10 μM) and retreated after 48 hours when media was changed. Cell growth was assessed using the CellTiter96® assay system from Promega (Madison, Wis.). Each experimental condition was performed in triplicate or quadruplicate, with the number of experiments for each cell line being three.
(§4) Statistical significance was assessed using an ANOVA with the appropriate post-hoc analysis as well as Students t-tests. *=p<0.05 when compared to control-treated (DMSO) cells. #=p<0.05 when compared to 5FU-treated cells.

Test [3] has as its system DLD-1 colorectal carcinoma cells. The experiment in a line: Anti-proliferative effect on DLD-1 cells (CellTiter96). Type of test: cell-based. The settings on record: Homo sapiens, 5-FU alone 1 μM, read-out: proliferation, percent of control. How it is done:
as §1, §2, §3, §4

Test [4] relates to HeLa. As to the kind of experiment: Proliferation of HeLa cells (FIG. 1, CellTiter96). Type of test: cell-based. The settings on record: 10 μM dithiocarbamate + 0.1 μM 5-FU, or 0.1 μM 5-FU alone, 24-72 hours. How it is done:
as §1, §2
(§5) Cells were treated with dithiocarbamate (0.1-100 μM)±5FU (0.01-10 μM) and retreated after 48 hours when media was changed. Cell growth was assessed using the CellTiter96® assay system from Promega (Madison, Wis.). […]
as §4

The subject of test [5] is H1299. As to the kind of experiment: Proliferation of H1299 cells (FIG. 1, CellTiter96). Type of test: cell-based. The settings on record: 10 μM dithiocarbamate + 0.1 μM 5-FU, or 0.1 μM 5-FU alone, 24-72 hours. Here is the method: as §1, §2, §5, §4
The subject of test [6] is MCF-7. As to the kind of experiment: Proliferation of MCF-7 cells (FIG. 1, CellTiter96). Format: cell-based. The settings on record: 10 μM dithiocarbamate + 0.1 μM 5-FU, or 0.1 μM 5-FU alone, 24-72 hours. How it is done: as §1, §2, §5, §4
Test [7] has as its system Saos-2. The experiment in a line: Proliferation of Saos-2 cells (FIG. 1, CellTiter96). The settings on record: 10 μM dithiocarbamate + 0.1 μM 5-FU, or 0.1 μM 5-FU alone, 24-72 hours. Format: cell-based. How it is done: as §1, §2, §5, §4
Test [8] deals with T98G. As to the kind of experiment: Proliferation of T98G cells (FIG. 1, CellTiter96). Format: cell-based. The settings on record: 10 μM dithiocarbamate + 0.1 μM 5-FU, or 0.1 μM 5-FU alone, 24-72 hours. Here is the method: as §1, §2, §5, §4
Test [9] concerns HASM. The experiment in a line: Proliferation of non-transformed HASM cells (FIG. 1, CellTiter96). The settings on record: 10 μM dithiocarbamate + 0.1 μM 5-FU, or 0.1 μM 5-FU alone, 24-72 hours. Format: cell-based, Human. Here is the method:
as §1, §2, §5, §4

Test [10] has as its system HAEC. The experiment in a line: Proliferation of non-transformed HAEC cells (FIG. 1, CellTiter96). Type of test: cell-based, Human. The settings on record: 10 μM dithiocarbamate + 0.1 μM 5-FU, or 0.1 μM 5-FU alone, 24-72 hours. How it is done: as §1, §2, §5, §4
Test [11] relates to NHBE. The experiment in a line: Proliferation of non-transformed NHBE cells (FIG. 1, CellTiter96). Format: cell-based, Human. The conditions noted are these: 10 μM dithiocarbamate + 0.1 μM 5-FU, or 0.1 μM 5-FU alone, 24-72 hours. How it is done:
as §1, §2, §5, §4

Setting [12] is: Homo sapiens, Endothelial cell, HAEC, TNF-α 1 ng/ml, approximately 16 hours, read-out: VCAM-1 IC50.
[13] abbreviates: Homo sapiens, Endothelial cell, 16 h, read-out: VCAM-1 IC50 (μM).
Setting [14] is: HAEC, TNF-α 1 ng/ml, approximately 16 hours, read-out: VCAM-1 IC50.

Where a name gives a salt, the structure may show the parent alone. Read-outs that look alike come from different tables or passages of the source.

Regarding `C=CCNC(=S)SCCCC(=O)OC` [4-(Allylthiocarbamoylsulfanyl)butyric acid methyl ester], the IC50 (usually the midpoint of a concentration-inhibition curve) in test [1] (setting [12]) was determined as 30 µM.

Turning to `COC(=O)CSC(=S)NCC1CCCO1` (stereo not shown) [III: Y′=CH2C(O)OCH3, (Tetrahydrofuran-2-ylmethylthiocarbamoylsulfanyl)acetic acid methyl ester], the half-inhibitory concentration (IC50) in test [1] (setting [12]) worked out at 10 µM.

As for `COC(=O)CCCSC(=S)NC[C@H]1CCCO1` [4-((R)-Tetrahydrofuran-2-ylmethylthiocarbamoyl-sulfanyl)butyric acid methyl ester], the IC50 in test [1] (setting [12]) is 3 µM.

For the compound `COC(=O)CCCSC(=S)NCCc1cc2ccccc2[nH]1` [4-[2-(1H-Indol-2-yl)ethylthiocarbamoyl-sulfanyl]butyric acid methyl ester], the IC50 in [1] (setting [13]) was determined as 5 µM.

For the compound `CCN(CC)CCNC(=S)SCCC(=O)OC` [3-(2-Diethylamino-ethylthiocarbamoylsulfanyl)-propionic acid methyl ester], the IC50 in test [1] (setting [12]) was 37 µM.

As for `CNC(=S)Sc1ccc(F)cc1F` [Methyldithiocarbamic acid 2,4-difluorophenyl ester], the concentration for half-maximal inhibition (IC50) in test [1] (setting [12]) came out at 18 µM.

Take `CCCCCCCCCCCCSC(=S)NCCc1ccccc1` [Phenethyldithiocarbamic acid dodecyl ester]: the IC50 in test [1] (setting [12]) stood at 30 µM.

In the case of `O=c1[nH]cc(F)c(=O)[nH]1` [5-FU, 5-fluorouracil], the activity at 1 µM in test [2] (24 HOURS) amounted to 109%; in [2] (48 HOURS) it was 85.5%; in [2] (72 HOURS), 86.1%; in test [3] (24 HOURS), 90.8%; in test [3] (48 HOURS) it was 85.8%; in test [3] (72 HOURS), 113%. Also, the inhibition of proliferation result in test [4], in test [5], in test [6], in test [7], in test [8] and in test [9] was “no significant inhibition of proliferation” throughout. For the same compound, the inhibition of proliferation result in test [10] and in test [11] was “no significant inhibition of proliferation” throughout.

Consider `CCOC(=O)CCCNC(=S)SCC1CCCO1` (stereo not shown) [4-(Tetrahydrofuran-2-ylmethylsulfanyllthio-carbonylamino)butyric acid ethyl ester], for which the IC50 in [1] (setting [14]) amounted to 5 µM.

In the case of `COCCCNC(=S)Sc1ccc(Cl)cc1` [(3-Methoxypropyl)dithiocarbamic acid 4-chlorophenyl ester], the IC50 in [1] (setting [12]) is 6 µM.

As to `CNC(=S)SCCC(=O)OC` [II: X=H, Y′=C(O)OCH3, N=1, m=2, 3-(Methylthiocarbamoylsulfanyl)propionic acid methyl ester], the IC50 in [1] (setting [12]) worked out at 14 µM.

On to `O=C(O)CCCSC(=S)NCC1CCCO1` (stereo not shown) [III: Y′=(CH2)3C(O)OH, 4-(Tetrahydrofuran-2-ylmethylthiocarbamoylsulfanyl)-butyric acid], for which the half-maximal inhibitory concentration (IC50) in test [1] (setting [12]) was found to be 7 µM.

Turning to `COC(=O)CCCSC(=S)NC[C@@H]1CCCO1` [4-((S)-Tetrahydrofuran-2-ylmethylthiocarbamoyl-sulfanyl)butyric acid methyl ester], in [1] (setting [12]), the IC50 stood at 3 µM.

Turning to `COC(=O)CCSC(=S)NCc1ccco1` [3-(Furan-2-ylmethylthiocarbamoyl-sulfanyl)propionic acid methyl ester], the concentration for half-maximal inhibition (IC50) in [1] (setting [13]) came to 6 µM.

Consider `COCCNC(=S)SCCCC(=O)OC` [II: X=CH3O, Y′=C(O)OCH3, N=2, m=3, 4-(2-Methoxy-ethylthiocarbamoylsulfanyl)butyric acid methyl ester], for which, in [1] (setting [12]), the IC50 came to 11 µM.

As for `S=C(NCc1cccnc1)SCc1cc(Cl)sc1Cl` [(Pyridin-3-ylmethyl)dithiocarbamic acid 2,5-dichloro-thiophen-3-ylmethyl ester], in [1] (setting [12]), the IC50 stood at 1.5 µM.

For the compound `COC(=O)CCCCCSC(=S)NCC1CCCO1` (stereo not shown) [III: Y′=(CH2)5C(O)OCH2CH3, 6-(Tetrahydrofuran-2-ylmethylthiocarbamoyl-sulfanyl)hexanoic acid methyl ester], in [1] (setting [12]), the IC50 stood at 11 µM.

In the case of `COC(=O)CCCSC(=S)NCC1CCCCC1` [4-(Cyclohexylmethylthiocarbamoylsulfanyl)butyric acid methyl ester], the IC50 in [1] (setting [12]) worked out at 40 µM.

On to `COC(=O)CCCSC(=S)NCCC1CCCN1C` (stereo not shown) [4-[2-(1-Methylpyrrolidin-2-yl)ethylthiocarbamoyl-sulfanyl]butyric acid methyl ester], for which the IC50 in test [1] (setting [12]) came to 18 µM.

For the compound `CSC(=S)NCC1CCCO1` (stereo not shown) [III: Y′=CH3, (Tetrahydrofuran-2-ylmethyl)dithiocarbamic acid methyl ester], the IC50 in test [1] (setting [12]) was 6.5 µM.

For `CCOC(=O)NC(=S)SCCC(=O)OC` [3-(Ethoxycarbonylthiocarbamoylsulfanyl)propionic acid methyl ester], the IC50 in test [1] (setting [12]) is 50 µM.

On to `NC(CSC(=S)NCc1ccccc1)C(=O)O` (stereo not shown) [(2-Amino-3-benzylthiocarbamoylsulfanyl)propionic acid], for which the IC50 in test [1] (setting [14]) is 7 µM.

`COC(=O)CCSC(=S)NCC1CCCO1` (stereo not shown) [III: Y′=(CH2)2C(O)OCH3, 3-(Tetrahydrofuran-2-ylmethylthiocarbamoylsulfanyl)-propionic acid methyl ester]: the IC50 in [1] (setting [12]) turned out to be 3 µM.

Turning to `COC(=O)CCCSC(=S)NCc1ccccc1` [4-(Benzylthiocarbamoylsulfanyl)butyric acid methyl ester], the IC50 in [1] (setting [12]) stood at 25 µM.

In the case of `N#CCCCSC(=S)NCC1CCCO1` (stereo not shown) [III: Y′=(CH2)3CN, (Tetrahydrofuran-2-ylmethyl)dithiocarbamic acid 3-cyano-propyl ester], the IC50 in test [1] (setting [12]) was found to be 3 µM.

For the compound `CC(=O)CCCSC(=S)NCC1CCCO1` (stereo not shown) [III: Y′=(CH2)3C(O)CH3, (Tetrahydrofuran-2-ylmethyl)dithiocarbamic acid 4-oxo-pentyl ester], the IC50 in test [1] (setting [12]) amounted to 7 µM.

As to `S=C(NCc1ccc(Cl)cc1Cl)SCc1ccc(Cl)cc1Cl` [(2,4-dichlorobenzyl)dithiocarbamic acid 2,4-dichlorobenzyl ester], the IC50 in test [1] (setting [13]) amounted to 8 µM.

Consider `CC(C)CNC(=S)SCc1ccc(Cl)cc1Cl` [Isobutyldithiocarbamic acid 2,4-dichlorobenzyl ester], for which the IC50 in test [1] (setting [13]) stood at 32 µM.

`C=CCNC(=S)SCCN` [Allyldithiocarbamic acid 2-aminoethyl ester hydrochloride]: the IC50 in test [1] (setting [12]) stood at 12 µM.

For `COc1cccc(CNC(=S)SCC(=O)C(C)(C)C)c1` [(3-Methoxybenzyl)dithiocarbamic acid 3,3-dimethyl-2-oxo-butyl ester], in test [1] (setting [12]), the IC50 came out at 2 µM.
